This is an account of results in patent publication US10000507B2, “Furo- and thieno-pyridine carboxamide compounds useful as pim kinase inhibitors” (Incyte Corporation, priority 2013, dated 2018).

Holding throughout (type): biochemical
One test addresses Pim-1 (Homo sapiens (Human), UniProt P11309). Kind of test: Pim-1 kinase assay. The settings on record: 1 mM ATP, biotin-labeled BAD peptide substrate; read-out: Pim1 IC50. As to the method: (§1) Pim-1 and Pim-3 kinase assays-20 μL reactions were run in white 384 well polystyrene plates dotted with 0.8 μL compound/DMSO in the assay buffer (50 mM Tris, pH 7.5, 0.01% Tween-20, 5 mM MgCl2, 0.01% BSA, 5 mM DTT), containing […] Biotin-labeled BAD peptide substrate (AnaSpec 62269), 1 mM ATP, and 2.5 pM (Pim-1, Invitrogen PV3503) or 1.25 pM (Pim-3, Millipore 14-738) enzyme for 1 h at 25° C. Reactions were stopped by addition of 10 μL STOP Buffer (150 mM Tris, pH=7.5, 150 mM NaCl, 75 mM EDTA, 0.01% Tween-20, 0.3% BSA) supplemented with Phospho-Bad (Ser112) Antibody (Cell Signaling 9291) diluted 666-fold, and Streptavidin donor beads (PerkinElmer 6760002) along with Protein-A acceptor beads (PerkinElmer 6760137) at 15 μg/mL each. Supplementation of the STOP buffer with beads and stopping the reactions were done under reduced light. Prior to the stopping reactions STOP buffer with beads was pre-incubated for 1 h in the dark at room temperature. After stopping the reactions, plates were incubated for 1 h in the dark at room temperature before reading on a PHERAstar FS plate reader (BMG Labtech) under reduced light.

The target of a further test is Pim-3 (Homo sapiens (Human), UniProt Q86V86). Description: Pim-3 kinase assay. The settings on record: 1 mM ATP, biotin-labeled BAD peptide substrate; read-out: Pim3 IC50. As to the method: as §1
Another test addresses Pim-2 (Homo sapiens (Human), UniProt Q9P1W9). Description: Pim-2 kinase assay. The settings on record: 1 mM ATP, fluorescein-labeled CREBtide peptide substrate; read-out: Pim2 IC50. The procedure: Pim-2 kinase assay-20 μL reactions were run in white 384 well polystyrene plates dotted with 0.8 μL compound/DMSO in the assay buffer (50 mM Tris, pH 7.5, 0.01% Tween-20, 5 mM MgCl2, 0.01% BSA, 5 mM DTT), containing 0.05 μm Fluorescein-labeled CREBtide peptide substrate (Invitrogen PV3508), 1 mM ATP, and 1 nM enzyme (Invitrogen PV3649) for 2 h at 25° C. Reactions were stopped by addition of 10 μL TR-FRET Dilution Buffer (Invitrogen PV3574) with 30 mM EDTA and 1.5 nM LanthaScreen Tb-CREB pSer133 antibody (Invitrogen PV3566). After 30 min. incubation at room temperature, plates were read on a PHERAstar FS plate reader (BMG Labtech).

Bounds are passed on as bounds.

Pim-2, sequence (Q9P1W9 whole entry): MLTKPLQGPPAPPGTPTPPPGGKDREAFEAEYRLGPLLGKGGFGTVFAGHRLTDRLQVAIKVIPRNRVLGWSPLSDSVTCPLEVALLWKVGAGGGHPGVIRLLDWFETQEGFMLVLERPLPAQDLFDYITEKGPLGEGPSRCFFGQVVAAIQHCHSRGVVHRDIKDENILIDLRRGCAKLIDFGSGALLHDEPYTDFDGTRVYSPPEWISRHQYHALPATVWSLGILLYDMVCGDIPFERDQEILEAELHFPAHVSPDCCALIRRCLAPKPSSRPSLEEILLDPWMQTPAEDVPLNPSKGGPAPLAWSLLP
Pim-1, sequence (P11309 whole entry): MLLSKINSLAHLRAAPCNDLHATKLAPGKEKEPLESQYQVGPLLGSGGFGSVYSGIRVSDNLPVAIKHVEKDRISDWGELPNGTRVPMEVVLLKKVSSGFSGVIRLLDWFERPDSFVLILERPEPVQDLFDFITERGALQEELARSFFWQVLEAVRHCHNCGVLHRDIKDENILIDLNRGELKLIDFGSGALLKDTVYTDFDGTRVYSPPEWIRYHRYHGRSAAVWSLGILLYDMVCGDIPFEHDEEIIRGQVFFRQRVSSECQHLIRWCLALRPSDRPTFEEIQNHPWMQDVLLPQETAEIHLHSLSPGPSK

On to `C[C@@H]1C[C@H](N)CN(c2ccncc2NC(=O)c2c(N)oc3cc(F)cnc23)C1` [Example 71, 2-Amino-N-{4-[(3S,5R)-3-amino-5-methyl-piperidin-1-yl]pyridin-3-yl}-6-fluorofuro[3,2-b]pyridine-3-carboxamide], for which the IC50 at Pim-1 was at most 10 nM; on Pim-3 it was at most 10 nM; on Pim-2 it was 10 to 100 nM.

For the compound `Nc1sc2cc(-c3ccccc3)cnc2c1C(=O)Nc1cnccc1N1CCC[C@H](N)C1` [Example 24, 2-Amino-N-{4-[(3S)-3-aminopiperidin-1-yl]pyridin-3-yl}-6-phenylthieno[3,2-b]pyridine-3-carboxamide], the results for the IC50 on Pim-1, at Pim-3 and at Pim-2 were at most 10 nM, at most 10 nM and over 1000 nM, respectively.

On to `C[C@H]1CN(c2ccncc2NC(=O)c2c(N)oc3cc(Cl)cnc23)C[C@@H](N)[C@@H]1O` [Example 66, 2-amino-N-{4-[(3R,4R,5S)-3-amino-4-hydroxy-5-methylpiperidin-1-yl]pyridin-3-yl}-6-chlorofuro[3,2-b]pyridine-3-carboxamide], for which the results for the IC50 at Pim-1, on Pim-3 and at Pim-2 were at most 10 nM, at most 10 nM and 10 to 100 nM, respectively.

`Cc1cncc(NC(=O)c2c(N)oc3cccnc23)c1N1CC[C@H](N)C1` [Example 64, 2-amino-N-{4-[(3S)-3-aminopyrrolidin-1-yl]-5-methylpyridin-3-yl}furo[3,2-b]pyridine-3-carboxamide]: the values for the IC50 on Pim-1, at Pim-3 and at Pim-2 were at most 10 nM, at most 10 nM and 100 to 2000 nM, respectively.

`Nc1oc2cc(C3CC3)cnc2c1C(=O)Nc1cnccc1N1C[C@@H](N)[C@H](O)[C@@H](C2CC2)C1` [Example 128, 2-Amino-N-(4-((3R,4R,5S)-3-amino-5-cyclopropyl-4-hydroxypiperidin-1-yl)pyridin-3-yl)-6-cyclopropylfuro[3,2-b]pyridine-3-carboxamide]: the IC50 on Pim-1 was at most 10 nM; on Pim-3, at most 10 nM; at Pim-2 it was 10 to 100 nM.

In the case of `Cc1cncc(NC(=O)c2c(N)oc3cc(Cl)cnc23)c1N1C[C@@H](N)[C@H](O)[C@@H](C)C1` [Example 78, 2-Amino-N-{5-methyl-4-[(3R,4R,5S)-3-amino-4-hydroxy-5-methylpiperidin-1-yl]pyridin-3-yl}-6-chlorofuro[3,2-b]pyridine-3-carboxamide], the IC50 at Pim-1 is at most 10 nM; on Pim-3, at most 10 nM; at Pim-2, 10 to 100 nM.

On to `Cn1ncc(NC(=O)c2c(N)sc3cccnc23)c1N1CCCNCC1` [Example 4, 2-Amino-N-[5-(1,4-diazepan-1-yl)-1-methyl-1H-pyrazol-4-yl]thieno[3,2-b]pyridine-3-carboxamide], for which the IC50 at Pim-1 was at most 10 nM; on Pim-3 it was at most 10 nM; at Pim-2, over 1000 nM.

With `CCCc1cnc2c(C(=O)Nc3cnccc3N3C[C@@H](N)[C@@](C)(O)[C@@H](C)C3)c(N)oc2c1` [Example 86, 2-Amino-N-{4-[(3R,4S,5S)-3-amino-4-hydroxy-4,5-dimethylpiperidin-1-yl]pyridin-3-yl}-6-propylfuro[3,2-b]pyridine-3-carboxamide], the IC50 on Pim-1, on Pim-3 and at Pim-2 was at most 10 nM each time.

As to `Nc1oc2cccnc2c1C(=O)Nc1cnccc1N1CCC[C@H](N)C1` [Example 45, 2-Amino-N-{4-[(3S)-3-aminopiperidin-1-yl]pyridin-3-yl}furo[3,2-b]pyridine-3-carboxamide], the IC50 is at most 10 nM on Pim-1, at most 10 nM on Pim-3 and 100 to 1000 nM on Pim-2.

On to `Nc1oc2cc(-c3cncnc3)cnc2c1C(=O)Nc1cnccc1N1C[C@@H](N)C[C@@H](C(F)(F)F)C1` [Example 111, 2-Amino-N-{4-[(3S,5R)-3-amino-5-(trifluoromethyl)piperidin-1-yl]pyridin-3-yl}-6-pyrimidin-5-ylfuro[3,2-b]pyridine-3-carboxamide], for which the figures for the IC50 at Pim-1, at Pim-3 and on Pim-2 were at most 10 nM, at most 10 nM and 10 to 100 nM, respectively.

Consider `CCCc1cnc2c(C(=O)Nc3cnccc3N3C[C@H](C)C[C@H](N)C3)c(N)oc2c1` [Example 70, 2-Amino-N-{4-[(3S,5R)-3-amino-5-methyl-piperidin-1-yl]pyridin-3-yl}-6-propylfuro[3,2-b]pyridine-3-carboxamide], for which the IC50 on Pim-1 was at most 10 nM; at Pim-3 it was at most 10 nM; on Pim-2, 10 to 100 nM.

For `Nc1oc2cc(CCCN3CCOCC3)cnc2c1C(=O)Nc1cnccc1N1C[C@@H](N)C[C@@H](C(F)(F)F)C1` [Example 132, 2-Amino-N-{4-[(3S,5R)-3-amino-5-(trifluoromethyl)piperidin-1-yl]pyridin-3-yl}-6-(3-morpholin-4-ylpropyl)furo[3,2-b]pyridine-3-carboxamide], the IC50 at Pim-1, on Pim-3 and on Pim-2 was at most 10 nM throughout.

For the compound `Nc1oc2cc(Cl)cnc2c1C(=O)Nc1cnccc1N1C[C@@H](N)C[C@@H](C(F)(F)F)C1` [Example 62, 2-amino-N-{4-[(3S,5R)-3-amino-5-(trifluoromethyl)piperidin-1-yl]pyridin-3-yl}-6-chlorofuro[3,2-b]pyridine-3-carboxamide], the IC50 on Pim-1 is at most 10 nM; at Pim-3, at most 10 nM; on Pim-2, 10 to 100 nM.

As for `CCCc1cnc2c(C(=O)Nc3cnccc3N3C[C@@H](N)[C@](C)(O)[C@@H](C)C3)c(N)oc2c1` [Example 85, 2-Amino-N-{4-[(3R,4R,5S)-3-amino-4-hydroxy-4,5-dimethylpiperidin-1-yl]pyridin-3-yl}-6-propylfuro[3,2-b]pyridine-3-carboxamide], the IC50 on Pim-1, at Pim-3 and at Pim-2 was at most 10 nM each time.

Turning to `C[C@@H]1C[C@H](N)CN(c2sncc2NC(=O)c2c(N)oc3cc(C4CCOCC4)cnc23)C1` [Example 96], the IC50 at Pim-1 is at most 10 nM; on Pim-3, at most 10 nM; on Pim-2, 10 to 100 nM.

`Cn1cc(-c2cnc3c(C(=O)Nc4cnccc4N4C[C@@H](N)C[C@@H](C(F)(F)F)C4)c(N)oc3c2)cn1` [Example 109, 2-Amino-N-{4-[(3S,5R)-3-amino-5-(trifluoromethyl)piperidin-1-yl]pyridin-3-yl}-6-(1-methyl-1H-pyrazol-4-yl)furo[3,2-b]pyridine-3-carboxamide]: the IC50 at Pim-1 is at most 10 nM; on Pim-3 it was at most 10 nM; on Pim-2, 10 to 100 nM.

For the compound `Nc1sc2cc(OC3CC3)cnc2c1C(=O)Nc1cnccc1N1CCC[C@H](N)C1` [Example 14, 2-Amino-N-{4-[(3S)-3-aminopiperidin-1-yl]pyridin-3-yl}-6-cyclopropoxythieno[3,2-b]pyridine-3-carboxamide], the IC50 at Pim-1 was at most 10 nM; on Pim-3, at most 10 nM; at Pim-2, over 2000 nM.

Consider `CCc1cnc2c(C(=O)Nc3cnccc3N3CCC[C@H](N)C3)c(N)sc2c1` [Example 22, 2-Amino-N-{4-[(3S)-3-aminopiperidin-1-yl]pyridin-3-yl}-6-ethylthieno[3,2-b]pyridine-3-carboxamide], for which the IC50 at Pim-1 was at most 10 nM; on Pim-3, at most 10 nM; at Pim-2, 10 to 100 nM.

Consider `Nc1oc2cc(CN3CC[C@H](F)C3)cnc2c1C(=O)Nc1cnccc1N1C[C@@H](N)C[C@@H](C(F)(F)F)C1` [Example 106, 2-Amino-N-{4-[(3S,5R)-3-amino-5-(trifluoromethyl)piperidin-1-yl]pyridin-3-yl}-6-{[(3S)-3-fluoropyrrolidin-1-yl]methyl}furo[3,2-b]pyridine-3-carboxamide], for which the IC50 is at most 10 nM at Pim-1, at most 10 nM on Pim-3 and 10 to 100 nM at Pim-2.

With `CNC(=O)c1ccc(-c2cnc3c(C(=O)Nc4cnccc4N4C[C@@H](N)C[C@@H](C(F)(F)F)C4)c(N)oc3c2)cn1` [Example 126], the IC50 is at most 10 nM at Pim-1, at most 10 nM at Pim-3 and 10 to 100 nM on Pim-2.

For the compound `Cc1cncc(NC(=O)c2c(N)oc3cc(C(F)(F)F)cnc23)c1N1C[C@@H](N)[C@H](O)[C@@H](C)C1` [Example 79, 2-Amino-N-{5-methyl-4-[(3R,4R,5S)-3-amino-4-hydroxy-5-methylpiperidin-1-yl]pyridin-3-yl}-6-(trifluoromethyl)-furo[3,2-b]pyridine-3-carboxamide], the IC50 at Pim-1 is at most 10 nM; on Pim-3, at most 10 nM; at Pim-2 it was 10 to 100 nM.
